Source: patent publication US20260042764A1, “COMPOSITIONS AND METHODS FOR INHIBITION OF KRAS” (TheRas, Inc., priority 2022, published 2026)

How the values were obtained:
[1] = biological target: T1, Avi-KRAS G12D (1-169) GppNHp/RAF1 RBD-3xFLAG (52-151) (Homo sapiens, UniProt P01116, G12D); assay: Raf1-KRAS G12D-GppNHP disruption HTRF assay (Biological Example 1); assay type: binding; settings: KRAS G12D-GppNHp/RAF1 RBD HTRF
T1 construct: Avi-KRAS G12D (1-169)
In short: (§1)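 Using HTRF, the loss of KRAS–effector RAF1 complex was quantified in 50 mM Tris pH 7.5 buffer with 100 mM NaCl and 0.1% BSA. The protein step and reagent step ran 1 h each at room temperature. Activity normalized with DMSO taken as 100%.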

[2] = biological target: T2, Avi-KRAS G12R (1-169) GppNHp/RAF1 RBD-3xFLAG (52-151) (Homo sapiens, UniProt P01116, G12R); assay: Raf1-KRAS G12R-GppNHP disruption HTRF assay (Biological Example 1); assay type: binding; settings: KRAS G12R-GppNHp/RAF1 RBD HTRF
T2 construct: Avi-KRAS G12R (1-169)
In short: as §1

[3] = biological target: T3, Avi-KRAS G12V (1-169) GppNHp/RAF1 RBD-3xFLAG (52-151) (Homo sapiens, UniProt P01116, G12V); assay: Raf1-KRAS G12V-GppNHP disruption HTRF assay (Biological Example 1); assay type: binding; settings: KRAS G12V-GppNHp/RAF1 RBD HTRF
T3 construct: Avi-KRAS G12V (1-169)
In short: as §1

[4] = biological target: T4, Avi-KRAS WT (1-169) GppNHp/RAF1 RBD-3xFLAG (52-151) (Homo sapiens, UniProt P01116); assay: Raf1-KRAS WT-GppNHP disruption HTRF assay (Biological Example 1); assay type: binding; settings: KRAS WT-GppNHp/RAF1 RBD HTRF
T4 construct: Avi-KRAS WT (1-169)
In short: as §1

[5] = test system: GP2d cells (KRAS G12D); assay: Cell-based pERK HTRF assay in GP2d cell (Biological Example 2); settings: GP2d (KRAS G12D) cells, pERK HTRF
In short: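 GP2d (KRAS G12D) cells were plated in DMEM/10% FBS and treated the next day for 60 min with compounds. Dosing used 9-point half-log series starting at 1 μM or 100 nM in 0.25% DMSO. Lysates were read by HTRF pERK (d2/Eu cryptate antibodies) after 4–24 h at room temperature, with excitation at 320 nm and emission at 615 nm.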

[6] = test system: SW620 cells (KRAS G12V); assay: Cell-based pERK HTRF assay in SW620 cell (Biological Example 4); settings: pERK HTRF
In short: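 Read-out: HTRF pERK signal (excitation 320 nm, emission 615 nm) from lysates of SW620 cells after 4 h compound exposure. Dose range was 9 points, half-log steps from 1 μM, in 0.25% DMSO; antibody incubation ran 4–24 h at room temperature.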

[7] = Homo sapiens, SW-620, SW620 (KRAS G12V) cells

T3 sequence (P01116 1-169 isoform P01116-2 G12V): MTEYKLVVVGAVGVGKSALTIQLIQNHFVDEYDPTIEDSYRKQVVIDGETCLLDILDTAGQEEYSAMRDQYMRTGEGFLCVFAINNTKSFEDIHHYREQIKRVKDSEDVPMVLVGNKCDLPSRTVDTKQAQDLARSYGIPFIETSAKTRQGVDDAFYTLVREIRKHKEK
T4 sequence (P01116 1-169 isoform P01116-2): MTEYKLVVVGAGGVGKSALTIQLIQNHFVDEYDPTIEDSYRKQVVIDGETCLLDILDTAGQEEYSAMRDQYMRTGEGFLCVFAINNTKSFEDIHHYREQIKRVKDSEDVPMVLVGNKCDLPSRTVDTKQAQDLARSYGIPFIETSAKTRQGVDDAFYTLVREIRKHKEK
T2 sequence (P01116 1-169 isoform P01116-2 G12R): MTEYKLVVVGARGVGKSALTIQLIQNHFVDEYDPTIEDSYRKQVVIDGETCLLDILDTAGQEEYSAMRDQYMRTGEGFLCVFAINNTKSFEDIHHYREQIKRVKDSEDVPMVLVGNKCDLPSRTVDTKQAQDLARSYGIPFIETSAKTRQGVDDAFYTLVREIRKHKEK
T1 sequence (P01116 1-169 isoform P01116-2 G12D): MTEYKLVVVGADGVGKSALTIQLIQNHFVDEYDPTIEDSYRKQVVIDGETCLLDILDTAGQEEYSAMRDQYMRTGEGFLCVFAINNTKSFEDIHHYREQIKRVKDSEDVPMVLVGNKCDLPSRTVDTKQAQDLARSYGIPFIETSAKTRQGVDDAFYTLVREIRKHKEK

CCN(c1nc(OC[C@@]23CCCN2C[C@H](F)C3)nc2c(F)c(-c3ccc(F)c4sc(N)c(C#N)c34)c(C(F)(F)F)cc12)[C@@H]1CCN(C(C)=O)[C@H]1C [Compound 414]
IC50 [1]: 0.1 to 1 µM | IC50 [2]: 0.1 to 1 µM | IC50 [3]: 0.1 to 1 µM | IC50 [4]: 0.1 to 1 µM | IC50 ([5]; GP2d): < 0.1 µM | IC50 [6, 7]: 0.1 to 1 µM

CCN(c1nc(OC[C@@]23CCCN2C[C@H](F)C3)nc2c(F)c(-c3ccc(F)c4sc(N)c(C#N)c34)c(C(F)(F)F)cc12)[C@@H]1CCN(C(=O)C2CC2)[C@H]1C [Compound 415]
IC50 [1]: 0.1 to 1 µM | IC50 [2]: 0.1 to 1 µM | IC50 [3]: 1 to 10 µM | IC50 [4]: 0.1 to 1 µM | IC50 ([5]; GP2d): < 0.1 µM | IC50 [6, 7]: < 0.1 µM

CCN(c1nc(OC[C@@]23CCCN2C[C@H](F)C3)nc2c(F)c(-c3ccc(F)c4sc(N)c(C#N)c34)c(Cl)cc12)[C@@H]1CCN(C(C)=O)[C@H]1C [Compound 416]
IC50 [1]: 0.1 to 1 µM | IC50 [2]: 1 to 10 µM | IC50 [3]: 1 to 10 µM | IC50 [4]: 0.1 to 1 µM | IC50 ([5]; GP2d): < 0.1 µM | IC50 [6, 7]: 0.1 to 1 µM

CCC(=O)N1CC[C@@H](N(CC)c2nc(OC[C@@]34CCCN3C[C@H](F)C4)nc3c(F)c(-c4ccc(F)c5sc(N)c(C#N)c45)c(Cl)cc23)[C@@H]1C [Compound 417]
IC50 [1]: 0.1 to 1 µM | IC50 [2]: 1 to 10 µM | IC50 [3]: 1 to 10 µM | IC50 [4]: 0.1 to 1 µM | IC50 ([5]; GP2d): < 0.1 µM | IC50 [6, 7]: 0.1 to 1 µM

CN(C)C(=O)c1cn2c(n1)CN(c1nc(OC[C@@]34CCCN3C[C@H](F)C4)nc3c(F)c(-c4ccc(F)c5sc(N)c(C#N)c45)c(C(F)(F)F)cc13)CC2 [Compound 419]
IC50 [1]: 0.1 to 1 µM | IC50 [2]: 0.1 to 1 µM | IC50 [3]: 0.1 to 1 µM | IC50 [4]: 0.1 to 1 µM | IC50 ([5]; GP2d): < 0.1 µM | IC50 [6, 7]: < 0.1 µM

C[C@@H]1[C@H](N(C)c2nc(OC[C@@]34CCCN3C[C@H](F)C4)nc3c(F)c(-c4ccc(F)c5sc(N)c(C#N)c45)c(Cl)cc23)CCN1C(=O)C(C)(F)F [Compound 420]
IC50 [1]: 1 to 10 µM | IC50 [2]: 1 to 10 µM | IC50 [3]: 1 to 10 µM | IC50 [4]: 1 to 10 µM | IC50 ([5]; GP2d): 0.1 to 1 µM | IC50 [6, 7]: 0.1 to 1 µM

C[C@@H]1[C@H](N(C)c2nc(OC[C@@]34CCCN3C[C@H](F)C4)nc3c(F)c(-c4ccc(F)c5sc(N)c(C#N)c45)c(Cl)cc23)CCN1C(=O)C(C)(C)F [Compound 421]
IC50 [1]: 1 to 10 µM | IC50 [2]: 1 to 10 µM | IC50 [3]: 1 to 10 µM | IC50 [4]: 1 to 10 µM | IC50 ([5]; GP2d): 0.1 to 1 µM | IC50 [6, 7]: 0.1 to 1 µM

C[C@@H]1[C@H](N(C)c2nc(OC[C@@]34CCCN3C[C@H](F)C4)nc3c(F)c(-c4ccc(F)c5sc(N)c(C#N)c45)c(Cl)cc23)CCN1C(=O)C1(F)CC1 [Compound 422]
IC50 [1]: 1 to 10 µM | IC50 [2]: 1 to 10 µM | IC50 [3]: 1 to 10 µM | IC50 [4]: 1 to 10 µM | IC50 ([5]; GP2d): 0.1 to 1 µM | IC50 [6, 7]: 0.1 to 1 µM

C[C@@H]1CN(c2nc(OC[C@@]34CCCN3C[C@H](F)C4)nc3c(F)c(-c4ccc(F)c5sc(N)c(C#N)c45)c(C(F)(F)F)cc23)Cc2cc(C(=O)N(C)C)nn21 [Compound 423]
IC50 [1]: 0.1 to 1 µM | IC50 [2]: 0.1 to 1 µM | IC50 [3]: 0.1 to 1 µM | IC50 [4]: 0.1 to 1 µM | IC50 ([5]; GP2d): < 0.1 µM | IC50 [6, 7]: < 0.1 µM

C[C@@H]1[C@H](N(C)c2nc(OC[C@@]34CCCN3C[C@H](F)C4)nc3c(F)c(-c4ccc(F)c5sc(N)c(C#N)c45)c(C(F)(F)F)cc23)CCN1C(=O)C(C)(C)F [Compound 424]
IC50 [1]: 0.1 to 1 µM | IC50 [2]: 0.1 to 1 µM | IC50 [3]: 1 to 10 µM | IC50 [4]: 0.1 to 1 µM | IC50 ([5]; GP2d): < 0.1 µM | IC50 [6, 7]: 0.1 to 1 µM

C[C@@H]1[C@H](N(C)c2nc(OC[C@@]34CCCN3C[C@H](F)C4)nc3c(F)c(-c4ccc(F)c5sc(N)c(C#N)c45)c(C(F)(F)F)cc23)CCN1C(=O)C1(F)CC1 [Compound 425]
IC50 [1]: 0.1 to 1 µM | IC50 [2]: 0.1 to 1 µM | IC50 [3]: 1 to 10 µM | IC50 [4]: 0.1 to 1 µM | IC50 ([5]; GP2d): < 0.1 µM | IC50 [6, 7]: < 0.1 µM

CN(C)C(=O)c1cc2n(n1)CCN(c1nc(OC[C@@]34CCCN3C[C@H](F)C4)nc3c(F)c(-c4ccc(F)c5sc(N)c(C#N)c45)c(C(F)(F)F)cc13)CC2 [Compound 426]
IC50 [1]: 1 to 10 µM | IC50 [2]: 1 to 10 µM | IC50 [3]: 1 to 10 µM | IC50 [4]: 1 to 10 µM | IC50 ([5]; GP2d): 0.1 to 1 µM | IC50 [6, 7]: 0.1 to 1 µM

CNC(=O)N1CC[C@@H](N(C)c2nc(OC[C@@]34CCCN3C[C@H](F)C4)nc3c(F)c(-c4ccc(F)c5sc(N)c(C#N)c45)c(C(F)(F)F)cc23)[C@H]1C [Compound 427]
IC50 [1]: 0.1 to 1 µM | IC50 [2]: 0.1 to 1 µM | IC50 [3]: 0.1 to 1 µM | IC50 [4]: 0.1 to 1 µM | IC50 ([5]; GP2d): < 0.1 µM | IC50 [6, 7]: < 0.1 µM

N#Cc1c(N)sc2c(F)ccc(-c3c(C(F)(F)F)cc4c(N5CCN6C(=O)OCC6C5)nc(OCC56CCCN5CC(F)C6)nc4c3F)c12 (stereo not drawn) [Compound 428]
IC50 [1]: 1 to 10 µM | IC50 [2]: 1 to 10 µM | IC50 [3]: 1 to 10 µM | IC50 [4]: 0.1 to 1 µM | IC50 ([5]; GP2d): < 0.1 µM | IC50 [6, 7]: < 0.1 µM

C[C@]1(CO)CCN1c1nc(OC[C@@]23CCCN2C[C@H](F)C3)nc2c(F)c(-c3ccc(F)c4sc(N)c(C#N)c34)c(C(F)(F)F)cc12 [Compound 429]
IC50 [1]: 0.1 to 1 µM | IC50 [2]: 1 to 10 µM | IC50 [3]: 1 to 10 µM | IC50 [4]: 1 to 10 µM | IC50 ([5]; GP2d): < 0.1 µM | IC50 [6, 7]: < 0.1 µM

N#Cc1c(N)sc2c(F)ccc(-c3c(C(F)(F)F)cc4c(N5CCN6C(=O)CCC6C5)nc(OCC56CCCN5CC(F)C6)nc4c3F)c12 (stereo not drawn) [Compound 430]
IC50 [1]: 0.1 to 1 µM | IC50 [2]: 0.1 to 1 µM | IC50 [3]: 1 to 10 µM | IC50 [4]: 0.1 to 1 µM | IC50 [5]: < 0.1 µM | IC50 ([6]; SW620 (KRAS G12V) cells): < 0.1 µM

N#Cc1c(N)sc2c(F)ccc(-c3c(C(F)(F)F)cc4c(N5CCN6C(=O)OCC6C5)nc(OCC56CCCN5CC(F)C6)nc4c3F)c12 (stereo not drawn) [Compound 431]
IC50 [1]: 1 to 10 µM | IC50 [2]: 1 to 10 µM | IC50 [3]: 1 to 10 µM | IC50 [4]: 1 to 10 µM | IC50 [5]: < 0.1 µM | IC50 ([6]; SW620 (KRAS G12V) cells): < 0.1 µM

CCC(=O)N1CC[C@@H](N(C)c2nc(OC[C@@]34CCCN3C[C@H](F)C4)nc3c(F)c(-c4ccc(F)c5sc(N)c(C#N)c45)c(C(F)(F)F)cc23)[C@H]1CC [Compound 432]
IC50 [1]: 1 to 10 µM | IC50 [2]: 0.1 to 1 µM | IC50 [3]: 1 to 10 µM | IC50 [4]: 0.1 to 1 µM | IC50 ([5]; GP2d): < 0.1 µM | IC50 [6, 7]: 0.1 to 1 µM

CC[C@@H]1[C@H](N(C)c2nc(OC[C@@]34CCCN3C[C@H](F)C4)nc3c(F)c(-c4ccc(F)c5sc(N)c(C#N)c45)c(C(F)(F)F)cc23)CCN1C(=O)C(C)C [Compound 433]
IC50 [1]: 1 to 10 µM | IC50 [2]: 1 to 10 µM | IC50 [3]: 1 to 10 µM | IC50 [4]: 1 to 10 µM | IC50 ([5]; GP2d): 0.1 to 1 µM | IC50 [6, 7]: 0.1 to 1 µM

CC[C@@H]1[C@H](N(C)c2nc(OC[C@@]34CCCN3C[C@H](F)C4)nc3c(F)c(-c4ccc(F)c5sc(N)c(C#N)c45)c(C(F)(F)F)cc23)CCN1C(=O)C1CC1 [Compound 434]
IC50 [1]: 1 to 10 µM | IC50 [2]: 1 to 10 µM | IC50 [3]: 1 to 10 µM | IC50 [4]: 0.1 to 1 µM | IC50 ([5]; GP2d): 0.1 to 1 µM | IC50 [6, 7]: 0.1 to 1 µM
